System: DRGs, motor neurons, and Schwann cells
Test: Alamar blue viability assay of PN cells cultured 72 hours with immunosuppressive drugs
Conditions: 72 hours culture, max 1% DMSO
Method: It is contemplated that delivery of immunosuppressive agents function within a favorable therapeutic window. PNs are comprised of three major nervous system cell types, motor neurons, sensory neurons, and Schwann cells. […] FIG. 1B illustrates data regarding the toxicity of tacrolimus to DRGs, motor neurons, and Schwann cells. FIG. 1C illustrates data regarding the toxicity of prednisolone to DRGs, motor neurons, and Schwann cells.
Cells (DRGs, motor neurons, and Schwann cells) were cultured for 72 hours in various concentration of the immunosuppressive drugs and viability was evaluated using the Alamar blue viability assay. ISV's were diluted into media using a maximum of 1% dimethylsulfoxide (DMSO).
Biological material from Sprague Dawley (GFP− and GFP+) and Lewis rats, without any pathological conditions, were utilized to determine the PN allograft methods and materials described herein. Lewis rats were obtained from Charles River Laboratories (Wilmington, Mass.) and Sprague Dawley rats were obtained from Rat Resource and Research Center (Columbia, Mo.). Alzet osmotic pumps (model 1004), commercially available from DURECT Corporation, Cupertino, Calif., were utilized for delivery of immunosuppressive agents to PN allografts.

C[C@]12C=CC(=O)C=C1CC[C@@H]1[C@@H]2[C@@H](O)C[C@@]2(C)[C@H]1CC[C@]2(O)C(=O)CO [prednisolone]
dose tolerated by the cells (up to): up to 200 μM

— patent publication US10682408B2, “Localized immunosuppression of allografts for peripheral nerve repair” (UNIVERSITY OF WYOMING, priority 2016, dated 2020)
